Tested on: Human patients with short bowel syndrome
Assay: Example 2: liver biomarkers (albumin, gamma glutamyl transferase, total bilirubin, ALT, AST, ALP) in short bowel syndrome patients, every four weeks for 24 weeks
Format: in vivo
Procedure: To further confirm the results of Example 1, a further study was conducted involving more individuals and additional diagnostic biomarkers. Human patients with short bowel syndrome were divided into two groups: a control group (43 total individuals) to receive placebo, and an experimental group (42 total individuals) to receive teduglutide at 0.05 mg/kg/day throughout the study. Patients were treated by subcutaneous injection of placebo or the appropriate dose of teduglutide. Known biomarkers of liver function were monitored every four weeks, for 24 weeks. The liver biomarkers tested included albumin, gamma glutamyl transferase, total bilirubin, ALT and AST and ALP. Before administration of placebo or teduglutide, diagnostic biomarker levels were tested to establish a baseline for each individual.
To determine the effect of GLP-2 on the levels of the diagnostic biomarkers, the average level of each biomarker was measured for the placebo and teduglutide treated groups for each visit. Furthermore, the average change from baseline was calculated using the established baseline values. For FIGS. 17-28, p-values were calculated using the t-test.
P values are provided, which were calculated for each distribution of biomarker changes for each week using the chi-squared test.

[1] = Endpoint (last assessment after start of treatment), 0.05 mg/kg/d, n=42
[2] = Endpoint (last assessment), 0.05 mg/kg/d, m=42

CC[C@H](C)[C@H](NC(=O)[C@H](Cc1ccccc1)NC(=O)[C@H](CC(=O)O)NC(=O)[C@H](CCCNC(=N)N)NC(=O)[C@H](C)NC(=O)[C@H](C)NC(=O)[C@H](CC(C)C)NC(=O)[C@H](CC(N)=O)NC(=O)[C@H](CC(=O)O)NC(=O)[C@H](CC(C)C)NC(=O)[C@@H](NC(=O)[C@@H](NC(=O)[C@H](CC(N)=O)NC(=O)[C@H](CCSC)NC(=O)[C@H](CCC(=O)O)NC(=O)[C@H](CC(=O)O)NC(=O)[C@H](CO)NC(=O)[C@H](Cc1ccccc1)NC(=O)[C@H](CO)NC(=O)CNC(=O)[C@H](CC(=O)O)NC(=O)CNC(=O)[C@@H](N)Cc1c[nH]cn1)[C@@H](C)O)[C@@H](C)CC)C(=O)N[C@@H](CC(N)=O)C(=O)N[C@@H](Cc1c[nH]c2ccccc12)C(=O)N[C@@H](CC(C)C)C(=O)N[C@H](C(=O)N[C@@H](CCC(N)=O)C(=O)N[C@H](C(=O)N[C@@H](CCCCN)C(=O)N[C@H](C(=O)N[C@H](C(=O)N[C@@H](CC(=O)O)C(=O)O)[C@@H](C)O)[C@@H](C)CC)[C@@H](C)O)[C@@H](C)CC [teduglutide]
average level of diagnostic biomarkers elevated in liver dysfunction versus placebo cohort (0.05 mg/kg/day): lower level, on average | likelihood of a >10% decrease in liver biomarkers versus placebo (0.05 mg/kg/day): more likely | likelihood of a >10% increase in liver biomarkers versus placebo (0.05 mg/kg/day): less likely | measured level of albumin relative to placebo cohort (0.05 mg/kg/day, as treatment progressed): became elevated | ALKALINE PHOSPHATASE Change from Baseline, Median [1]: −22 U/L | ALT Change from Baseline, Mean [1]: −12.1 U/L | ALT Change from Baseline, Median [1]: −4 U/L | ALT Observed Value, Mean [1]: 31.0 U/L | ALT Observed Value, Median [1]: 23.5 U/L | AST Change from Baseline, Mean [1]: −5.4 U/L | AST Change from Baseline, Median [1]: −3 U/L | AST Observed Value, Mean [1]: 27.0 U/L | AST Observed Value, Median [1]: 24 U/L | Albumin Change from Baseline, Mean [1]: -0.5 g/L | Albumin Change from Baseline, Median [1]: 0 g/L | Albumin Observed Value, Mean [1]: 41.9 g/L | Albumin Observed Value, Median [1]: 42 g/L | Alkaline Phosphatase Change from Baseline, Mean [1]: −28.3 U/L | Alkaline Phosphatase Observed Value, Mean [1]: 106.4 U/L | Alkaline Phosphatase Observed Value, Median [1]: 90.5 U/L | Bilirubin Change from Baseline, Mean [1]: -3.33 µmol/L | Bilirubin Change from Baseline, Median [1]: -1.95 µmol/L | Bilirubin Observed Value, Mean [1]: 8.87 µmol/L | Bilirubin Observed Value, Median [1]: 6.95 µmol/L | Gamma Glutamyl Transferase Change from Baseline, Mean [1]: −12.8 U/L | Gamma Glutamyl Transferase Change from Baseline, Median [1]: −6 U/L | Gamma Glutamyl Transferase Observed Value, Mean [1]: 62.3 U/L | Gamma Glutamyl Transferase Observed Value, Median [1]: 42 U/L | ALT >10% decrease from Baseline, % of subjects [2]: (59.5%) | ALT >10% decrease from Baseline, n subjects [2]: 25 | ALT >10% increase from Baseline, % of subjects [2]: (11.9%) | ALT >10% increase from Baseline, n subjects [2]: 5 | ALT Within 10% of Baseline, % of subjects [2]: (28.6%) | ALT Within 10% of Baseline, n subjects [2]: 12 | AST >10% decrease from Baseline, % of subjects [2]: (59.5%) | AST >10% decrease from Baseline, n subjects [2]: 25 | AST >10% increase from Baseline, % of subjects [2]: (14.3%) | AST >10% increase from Baseline, n subjects [2]: 6 | AST Within 10% of Baseline, % of subjects [2]: (26.2%) | AST Within 10% of Baseline, n subjects [2]: 11 | Albumin >10% decrease from Baseline, % of subjects [2]: (4.8%) | Albumin >10% decrease from Baseline, n subjects [2]: 2 | Albumin >10% increase from Baseline, n subjects [2]: 0 | Albumin Within 10% of Baseline, % of subjects [2]: (95.2%) | Albumin Within 10% of Baseline, n subjects [2]: 40 | Alkaline Phosphatase >10% decrease from Baseline, % of subjects [2]: (57.1%) | Alkaline Phosphatase >10% decrease from Baseline, n subjects [2]: 24 | Alkaline Phosphatase >10% increase from Baseline, % of subjects [2]: (14.3%) | Alkaline Phosphatase >10% increase from Baseline, n subjects [2]: 6 | Alkaline Phosphatase Within 10% of Baseline, % of subjects [2]: (28.6%) | Alkaline Phosphatase Within 10% of Baseline, n subjects [2]: 12 | Bilirubin >10% decrease from Baseline, % of subjects [2]: (64.3%) | Bilirubin >10% decrease from Baseline, n subjects [2]: 27 | Bilirubin >10% increase from Baseline, % of subjects [2]: (16.7%) | Bilirubin >10% increase from Baseline, n subjects [2]: 7 | Bilirubin Within 10% of Baseline, % of subjects [2]: (19.0%) | Bilirubin Within 10% of Baseline, n subjects [2]: 8 | ALT >10% decrease from Baseline, % of subjects (Week 2, 0.05 mg/kg/d, m=40): (57.5%) | ALT >10% decrease from Baseline, n subjects (Week 2, 0.05 mg/kg/d, m=40): 23 | ALT >10% increase from Baseline, % of subjects (Week 2, 0.05 mg/kg/d, m=40): (17.5%) | ALT >10% increase from Baseline, n subjects (Week 2, 0.05 mg/kg/d, m=40): 7 | ALT Within 10% of Baseline, % of subjects (Week 2, 0.05 mg/kg/d, m=40): (25.0%) | ALT Within 10% of Baseline, n subjects (Week 2, 0.05 mg/kg/d, m=40): 10 | AST >10% decrease from Baseline, % of subjects (Week 2, 0.05 mg/kg/d, m=40): (50.0%) | AST >10% decrease from Baseline, n subjects (Week 2, 0.05 mg/kg/d, m=40): 20 | AST >10% increase from Baseline, % of subjects (Week 2, 0.05 mg/kg/d, m=40): (12.5%) | AST >10% increase from Baseline, n subjects (Week 2, 0.05 mg/kg/d, m=40): 5 | AST Within 10% of Baseline, % of subjects (Week 2, 0.05 mg/kg/d, m=40): (37.5%) | AST Within 10% of Baseline, n subjects (Week 2, 0.05 mg/kg/d, m=40): 15 | Albumin >10% decrease from Baseline, % of subjects (Week 2, 0.05 mg/kg/d, m=40): (7.5%) | Albumin >10% decrease from Baseline, n subjects (Week 2, 0.05 mg/kg/d, m=40): 3 | Albumin >10% increase from Baseline, n subjects (Week 2, 0.05 mg/kg/d, m=40): 0 | Albumin Within 10% of Baseline, % of subjects (Week 2, 0.05 mg/kg/d, m=40): (92.5%) | Albumin Within 10% of Baseline, n subjects (Week 2, 0.05 mg/kg/d, m=40): 37 | Alkaline Phosphatase >10% decrease from Baseline, % of subjects (Week 2, 0.05 mg/kg/d, m=40): (37.5%) | Alkaline Phosphatase >10% decrease from Baseline, n subjects (Week 2, 0.05 mg/kg/d, m=40): 15 | Alkaline Phosphatase >10% increase from Baseline, % of subjects (Week 2, 0.05 mg/kg/d, m=40): (15.0%) | Alkaline Phosphatase >10% increase from Baseline, n subjects (Week 2, 0.05 mg/kg/d, m=40): 6 | Alkaline Phosphatase Within 10% of Baseline, % of subjects (Week 2, 0.05 mg/kg/d, m=40): (47.5%) | Alkaline Phosphatase Within 10% of Baseline, n subjects (Week 2, 0.05 mg/kg/d, m=40): 19 | Bilirubin >10% decrease from Baseline, % of subjects (Week 2, 0.05 mg/kg/d, m=40): (70.0%) | Bilirubin >10% decrease from Baseline, n subjects (Week 2, 0.05 mg/kg/d, m=40): 28 | Bilirubin >10% increase from Baseline, % of subjects (Week 2, 0.05 mg/kg/d, m=40): (17.5%) | Bilirubin >10% increase from Baseline, n subjects (Week 2, 0.05 mg/kg/d, m=40): 7 | Bilirubin Within 10% of Baseline, % of subjects (Week 2, 0.05 mg/kg/d, m=40): (12.5%) | Bilirubin Within 10% of Baseline, n subjects (Week 2, 0.05 mg/kg/d, m=40): 5 | ALKALINE PHOSPHATASE Change from Baseline, Median (Week 2, 0.05 mg/kg/d, n=40): −8 U/L | ALT Change from Baseline, Mean (Week 2, 0.05 mg/kg/d, n=40): −8.9 U/L | ALT Change from Baseline, Median (Week 2, 0.05 mg/kg/d, n=40): −5.5 U/L | ALT Observed Value, Mean (Week 2, 0.05 mg/kg/d, n=40): 35.2 U/L | ALT Observed Value, Median (Week 2, 0.05 mg/kg/d, n=40): 27.5 U/L | AST Change from Baseline, Mean (Week 2, 0.05 mg/kg/d, n=40): −3.6, U/L | AST Change from Baseline, Median (Week 2, 0.05 mg/kg/d, n=40): −3 U/L | AST Observed Value, Mean (Week 2, 0.05 mg/kg/d, n=40): 29.0 U/L | AST Observed Value, Median (Week 2, 0.05 mg/kg/d, n=40): 24.5 U/L | Albumin Change from Baseline, Mean (Week 2, 0.05 mg/kg/d, n=40): -0.9 g/L | Albumin Change from Baseline, Median (Week 2, 0.05 mg/kg/d, n=40): -1 g/L | Albumin Observed Value, Mean (Week 2, 0.05 mg/kg/d, n=40): 41.5 g/L | Albumin Observed Value, Median (Week 2, 0.05 mg/kg/d, n=40): 42 g/L | Alkaline Phosphatase Change from Baseline, Mean (Week 2, 0.05 mg/kg/d, n=40): −12.5 U/L | Alkaline Phosphatase Observed Value, Mean (Week 2, 0.05 mg/kg/d, n=40): 123.7 U/L | Alkaline Phosphatase Observed Value, Median (Week 2, 0.05 mg/kg/d, n=40): 104 U/L | Bilirubin Change from Baseline, Mean (Week 2, 0.05 mg/kg/d, n=40): -2.12 µmol/L | Bilirubin Change from Baseline, Median (Week 2, 0.05 mg/kg/d, n=40): -1.85 µmol/L | Bilirubin Observed Value, Mean (Week 2, 0.05 mg/kg/d, n=40): 10.29 µmol/L | Bilirubin Observed Value, Median (Week 2, 0.05 mg/kg/d, n=40): 7.65 µmol/L | Gamma Glutamyl Transferase Change from Baseline, Mean (Week 2, 0.05 mg/kg/d, n=40): 7.4 U/L

— patent US20130072430A1, “METHODS FOR TREATMENT OR PROPHYLAXIS OF KIDNEY OR LIVER DYSFUNCTION” (NPS PHARMACEUTICALS, INC., priority 2010, published 2013)
